Measurements from patent US20070225255A1, “Use of Mitochondrially Targeted Antioxidant in the Treatment of Liver Diseases and Epithelial Cancers” (priority 2004, published 2007).

Key:
DDC intoxicated mice = assay: Serum parameters of liver damage in DDC intoxicated mice; type: in vivo, mouse; conditions: DDC 3 days, simultaneous MitoQ 3, 6 and 12 mg/kg
Protocol: In serum from various animal groups the activity of serum liver enzymes indicating liver damage, namely bilirubin, alanine aminotransferase (ALT/GPT; in diagram represented by white bars), aspartate aminotransferase (ASAT/GOT in diagram represented by black bars) are determined according to standard protocols in clinical diagnostics by employing commercially available kits (No: 11552414; 11876805216; 11876848216 all purchased by Roche AG, Switzerland) on a Hitachi/Roche 917 Analyser.
In serum from various tested animal groups following parameters indicating liver damage, namely bilirubin, alanine aminotransferase (ALT/GPT), aspartate aminotransferase (ASAT/GOT) and glutamate dehydrogenase (GLDH) are determined according to standard protocols in clinical diagnostics employing commercially available kits (No: 11552414; 11876805216; 11876848216; 11929992 all purchased by Roche AG, Switzerland) on a Hitachi/Roche 917 Analyser.

HepG2 cells = assay: ROS production (DCF fluorescence) in HepG2 cells, basal and CoCl2 stimulated; type: cell-based, human
Protocol: Alternatively, the generation of ROS is measured by using the fluoroprobe 5-(and-6)-chloromethyl-2′,7′-dichlorodihydrofluorescein diacetate acetyl ester (CM-H2DCFDA, Molecular Probes, Goettingen, Germany) which is converted to fluorescent dichlorofluorescien (DCF; Djordjevic T. et al., 2004, Antioxidants & Redox Signaling, 6: 713-720). To determine DCF fluorescence in a microplate reader (Tecan, Crailsheim, Germany), cells (e.g. HepG2, Hep3B or SNU-398) are grown in 96-well plates to 80% confluency. […] After several washes with HBSS to remove excess dye, fluorescence is monitored by using 480 nm excitation and 540 nm emission wavelength. DCF fluorescence is standardized to the number of viable cells using the Alamar Blue test according to the manufacturer's instructions (Biosource, Nivelles, Belgium). […] The absorbance is then measured at the wavelength of […].
In another experiment HepG2 stimulated by 100 μM CoCl2 (Sigma) are used (Bel Aiba R. S. et al., 2004,. Biol Chem. 385:249-57). […] The fluorescence is measured in a plate-reader (Tecan Safire) after 0, 10, 20 and 30 minutes (Djordjevic T, et al., 2005, Free Radic Biol Med. 38:616-30).

hemoxygenase 1 (HO-1) = assay: Western blot of hemoxygenase 1 in liver extracts of DDC intoxicated mice; type: in vivo, mouse; conditions: DDC 3 days, daily i.p. MitoQ in PBS/1% DMSO (112 nmol/kg), versus DDC intoxicated mice
Protocol: To evaluate hemoxygenase 1 (HO-1) protein expression know to be induced by oxidative stress (Suematsu M. and Ishimura Y., 2000, Hepatology, 31(1): 3-6) standard western blot analysis is performed using protein extracts derived from DDC intoxicated mice treated simultaneously for 3 days with MitoQ (diluted in 1% DMSO in PBS) or just vehicle itself (see protocols in Example 3).
Liver tissues are resuspended in ice-cold RIPA-buffer (50 mM Tris-HCl pH 7.4, 250 mM NaCl, 0.1% SDS, 1% deoxycholate, 1% NP-40) supplemented with 2 μg/ml leupeptin, 2 μg/ml pepstatin, 2 μg/ml aprotinin, 1 mM phenylmethylsulfonylfluoride (PMSF), and 2 mM dithiothreitol followed by homogenization through sonication (2 bursts of 5 seconds) on ice. After incubation for 20 minutes on ice, the lysates are cleared by two centrifugational steps in a microcentrifuge at 13 000 rpm for 15 minutes at 4° C. and the supernatants are collected. Protein concentrations are determined by the Bradford assay (Biorad) using bovine serum albumin as a standard. […] The intensities of the bands can be analysed densitometrically using ChemiImager 5500 software (Alpha Innotech) and each signal normalised to the intensity of the corresponding HO-2 (showing 7 fold reduction of HO-1 upon MitoQ treatment when compared to DDC intoxicated group of animals), or alternatively to β-actin.

[1] = fed to mice on a long term basis; cited from earlier work

With MitoQ the “alanine aminotransferase (ALT/GPT) serum activity” value (DDC intoxicated mice) was “most prominent reduction”, the “aspartate aminotransferase (AST/GOT) serum activity” value (DDC intoxicated mice) was “reduction of enzymatic activity” and the bilirubin in serum (DDC intoxicated mice; data not shown) was “remains without any changes”. The “CoCl2-stimulated ROS production (relative DCF fluorescence)” value (HepG2 cells; HepG2 cells, 100 μM CoCl2, 5 μM MitoQ) was “significantly decrease”, the “basal ROS production (relative DCF fluorescence)” value (HepG2 cells; unstimulated HepG2 cells, 5 μM MitoQ) was “significantly decrease” and the “reduction of HO-1 protein expression normalised to HO-2” value (hemoxygenase 1 (HO-1)) was 7 fold. The “concentrations within the brain, heart, liver, and muscle” value [1] was “potentially therapeutically effective concentrations” and the safety of feeding [1] was “fed safely”.
